EC50 data for 20 compounds are collected here from patent US20250268903A1, “RXFP1 AGONISTS” (BRISTOL-MYERS SQUIBB COMPANY, priority 2021, published 2025).

The test deals with T1, human RXFP1 (Homo sapiens, UniProt Q9HBX9).
T1 construct: expressed in transfected cells
T1 sequence (Q9HBX9 1-757): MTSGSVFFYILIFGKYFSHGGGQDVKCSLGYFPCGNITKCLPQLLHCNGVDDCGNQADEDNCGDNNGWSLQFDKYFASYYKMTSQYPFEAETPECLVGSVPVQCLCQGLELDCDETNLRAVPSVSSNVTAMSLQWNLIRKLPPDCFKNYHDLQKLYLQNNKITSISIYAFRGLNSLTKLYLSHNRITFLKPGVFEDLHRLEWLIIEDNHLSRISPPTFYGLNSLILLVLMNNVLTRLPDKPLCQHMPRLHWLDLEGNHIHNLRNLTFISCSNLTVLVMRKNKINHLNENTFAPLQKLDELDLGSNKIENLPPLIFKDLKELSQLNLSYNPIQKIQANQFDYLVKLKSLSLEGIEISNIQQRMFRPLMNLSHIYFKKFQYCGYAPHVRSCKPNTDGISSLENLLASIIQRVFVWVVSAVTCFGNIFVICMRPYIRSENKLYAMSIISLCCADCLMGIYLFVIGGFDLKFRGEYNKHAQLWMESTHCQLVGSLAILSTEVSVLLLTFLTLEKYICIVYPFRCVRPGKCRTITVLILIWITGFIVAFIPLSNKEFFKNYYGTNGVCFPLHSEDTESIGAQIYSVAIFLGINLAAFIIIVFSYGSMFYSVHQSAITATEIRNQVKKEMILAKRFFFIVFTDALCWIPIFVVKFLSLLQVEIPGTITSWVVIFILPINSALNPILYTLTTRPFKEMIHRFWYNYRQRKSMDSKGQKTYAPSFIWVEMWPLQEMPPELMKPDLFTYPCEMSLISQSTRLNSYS
In words: hRXFP1 HEK293 cAMP assay (HTRF). The class given is cell-based. The settings on record: HEK293 cells stably expressing human RXFP1, 30 min at room temperature. In short, it runs like this: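 HEK293 cells stably expressing human RXFP1 were suspended in HBSS (Ca/Mg) with 20 mM HEPES, 0.05% BSA and 0.5 mM IBMX, then treated with compounds (0.010 nM–50 μM, 2% DMSO final) for 30 min at room temperature. Intracellular cAMP was measured by HTRF, and potency was derived from 4-parameter logistic fits.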
For the compound `COc1ccc(C(O)C(F)(F)F)cc1C(=O)NC1C2CCC(/C2=C/C(F)(F)F)[C@@H]1C(=O)Nc1ccc(F)c(C(F)(F)F)c1` (single isomer, unassigned) [Example 6], the midpoint of the response, the EC50, lay at 1240 nM.

With `COc1ccc(C#CCCO)cc1C(=O)N[C@@H]1C2CCC(/C2=C/C(F)(F)F)[C@@H]1C(=O)Nc1ccc(F)c(C(F)(F)F)c1` (stereo partly drawn) [Example 76, (2S,3R,7Z)-N-[4-fluoro-3-(trifluoromethyl)phe-nyl]-3-[5-(4-hydroxybut-1-yn-1-yl)-2-methoxybenzamido]-7-(2,2,2-trifluoroethylidene)bi-cyclo[2.2.1]heptane-2-carboxamide], the EC50 worked out at 66 nM. Compared with the last compound, the EC50 is about 19-fold lower.

`COc1ccc(C(=O)N2CCC(O)CC2)cc1C(=O)N[C@H]1[C@@H](C(=O)Nc2ccc(F)c(C(F)(F)F)c2)[C@H]2CC[C@@H]1/C2=C\C1CC1` [Example 230, (1R,2S,3R,4R,7Z)-7-(cyclopropyl-methylidene)-N-[4-fluoro-3-(trifluoromethyl)phenyl]-3-[5-(4-hydroxypiperidine-1-carbonyl)-2-methoxybenzamido] bicyclo[2.2.1] heptane-2-carboxamide] returned an EC50 of 26 nM.

Regarding `COc1ccc(COC[C@@H]2C[C@@H]2C(=O)O)cc1C(=O)N[C@H]1[C@@H](C(=O)Nc2ccc(F)c(C(F)(F)F)c2)[C@H]2CC[C@@H]1/C2=C\C1CC1` [Example 292, (1S,2R)-2-{[(3-{[(1R.2R,3S,4R,7Z)-7-(cyclopropyl-methylidene)-3-{[4-fluoro-3-(trifluoromethyl)phenyl]carbamoyl}bicyclo[2.2.1]heptan-2-yl]carbamoyl}-4-methoxyphenyl)methoxy]methyl} cyclopropane-1-carboxylic acid], the EC50 came out at 28.4 nM.

`COc1ccc(C(=O)N2CCC3(CC2)COC3)cc1C(=O)N[C@H]1[C@@H](C(=O)Nc2ccc(F)c(C(F)(F)F)c2)[C@H]2CC[C@@H]1/C2=C\C1CC1` [Example 246, (1R,2S,3R, 4R,7Z)-7-(cyclopropyl-methylidene)-N-[4-fluoro-3-(trifluoromethyl)phenyl]-3-(2-methoxy-5-{2-oxa-7-azaspiro[3.5]nonane-7-carbonyl}benzamido) bicyclo[2.2.1] heptane-2-carboxamide]: the EC50 came out at 13.7 nM. Against the preceding compound, the EC50 is about 2.1-fold lower.

In turn, `COc1ccc(S(=O)(=O)N2CCOC[C@H]2CO)cc1C(=O)N[C@H]1[C@@H](C(=O)Nc2ccc(F)c(C(F)(F)F)c2)[C@H]2CC[C@@H]1/C2=C\C1CC1` [Example 224, (1R,2S,3R,4R,7Z)-7-(cyclopropylmethyl-idene)-N-[4-fluoro-3-(trifluoromethyl)phenyl]-3-(5-{[(3R)-3-(hydroxymethyl)morpholin-4-yl]sulfonyl}-2-methoxybenzamido) bicyclo[2.2.1] heptane-2-carboxamide] yielded a half-maximal effective concentration (EC50) of 80.3 nM.

In turn, `COc1ccc(CCC(=O)NCC(F)(F)F)cc1C(=O)NC1C2CCC(/C2=C/C(F)(F)F)[C@@H]1C(=O)Nc1ccc(F)c(C(F)(F)F)c1` (stereo partly drawn) [Example 141, (2S,3R,7Z)-N-[4-fluoro-3-(trifluoromethyl)phe-nyl]-3-(2-methoxy-5-{2-[(2,2,2-trifluoroethyl)carba-moyl]ethyl}benzami-do)-7-(2,2,2-trifluoroethylidene)bi-cyclo[2.2.1]heptane-2-carboxamide] came in with an EC50 of 829 nM.

Regarding `COc1ccc(C#CCOC(=O)Nc2ccccc2)cc1C(=O)N[C@@H]1C2CCC(/C2=C/C(F)(F)F)[C@@H]1C(=O)Nc1ccc(F)c(C(F)(F)F)c1` (stereo partly drawn) [Example 69, 3-(3-{[(2R,3S,7Z)-3-{[4-fluoro-3-(trifluoromethyl)phe-nyl]carbamoyl}-7-(2,2,2-trifluoroethylidene)bi-cyclo[2.2.1]heptan-2-yl]carbamoyl}-4-methoxyphenyl)prop-2-yn-1-yl N-phenylcarbamate], the EC50 came out at 95 nM.

Regarding `COc1ccc(/C=C/C(=O)N2CC[C@H](O)C2)cc1C(=O)N[C@@H]1C2CCC(/C2=C/C(F)(F)F)[C@@H]1C(=O)Nc1ccc(F)c(C(F)(F)F)c1` (stereo partly drawn) [Example 130, (2S,3R,7Z)-N-[4-fluoro-3-(trifluoromethyl)phe-nyl]-3-{5-[(1E)-3-[(3S)-3-hydroxypyrrolidin-1-yl]-3-oxoprop-1-en-1-yl]-2-methoxybenzamido}-7-(2,2,2-trifluoroethylidene)bi-cyclo[2.2.1]heptane-2-carboxamide], the EC50 was 114 nM.

For `COc1ccc(CCCC(F)(F)F)cc1C(=O)NC1C2CCC(/C2=C/C2CCC2)[C@@H]1C(=O)Nc1ccc(F)c(C(F)(F)F)c1` (some centres unmarked) [Example 195, (7Z)-7-(cyclobutylmethylidene)-N-[4-fluoro-3-(trifluoromethyl)phe-nyl]-3-[2-methoxy-5-(4,4,4-trifluorobutyl)benza-mido]bicyclo[2.2.1] heptane-2-carboxamide], the EC50 was determined as 59 nM.

For the compound `COc1ccc(C(=O)N2CCC(S(C)(=O)=O)CC2)cc1C(=O)N[C@H]1[C@@H](C(=O)Nc2ccc(F)c(C(F)(F)F)c2)[C@H]2CC[C@@H]1/C2=C\C1CC1` [Example 247, (1R,2S,3R,4R,7Z)-7-(cyclopropylmethyl-idene)-N-[4-fluoro-3-(trifluoromethyl)phenyl]-3-[5-(4-methanesulfonyl-piperidine-1-carbonyl)-2-methoxybenzamido] bicyclo[2.2.1] heptane-2-carboxamide], the EC50 was 27.2 nM.

For `CCCc1ccc(OCCO)c(C(=O)N[C@@H]2C3CCC(/C3=C/C(F)(F)F)[C@@H]2C(=O)Nc2ccc(F)c(C(F)(F)F)c2)c1` (stereo partly drawn) [Example 108, (2S,3R,7Z)-N-[4-fluoro-3-(trifluoromethyl)phe-nyl]-3-[2-(2-hydroxyethoxy)-5-propylbenzamido]-7-(2,2,2-trifluoroethylidene)bi-cyclo[2.2.1]heptane-2-carboxamide], a half-maximal effect (EC50) was put at 2270 nM.

In turn, `COc1ccc(C2CC3CC(O)CC32)cc1C(=O)N[C@H]1[C@@H](C(=O)Nc2ccc(F)c(C(F)(F)F)c2)[C@H]2CC[C@@H]1/C2=C\C1CC1` (single isomer, unassigned) [Example 341] yielded an EC50 of 126 nM. This EC50 lies about 18-fold lower than the previous one.

Compound `COc1ccc(/C=C/C(=O)N2CC[C@@H](O)C2)cc1C(=O)N[C@@H]1C2CCC(/C2=C/C(F)(F)F)[C@@H]1C(=O)Nc1ccc(F)c(C(F)(F)F)c1` (stereo partly drawn) [Example 129, (2S,3R,7Z)-N-[4-fluoro-3-(trifluoromethyl)phe-nyl]-3-{5-[(1E)-3-[(3R)-3-hydroxypyrrolidin-1-yl]-3-oxoprop-1-en-1-yl]-2-methoxybenzamido}-7-(2,2,2-trifluoroethylidene)bi-cyclo[2.2.1]heptane-2-carboxamide] showed an EC50 of 111 nM.

`COc1ccc(C2CC2C(=O)N2CCC(O)CC2)cc1C(=O)N[C@H]1[C@@H](C(=O)Nc2ccc(F)c(C(F)(F)F)c2)[C@H]2CC[C@@H]1/C2=C\C(F)(F)F` (single isomer, unassigned) [Example 325] had an EC50 of 2940 nM.

Compound `COc1ccc(CCC(C)(C)O)cc1C(=O)N[C@@H]1C2CCC(/C2=C/C2CCC2)[C@@H]1C(=O)Nc1ccc(F)c(C(F)(F)F)c1` (stereo partly drawn) [Example 87, (2S,3R,7Z)-7-(cyclobutylmethyli-dene)-N-[4-fluoro-3-(trifluoromethyl)phe-nyl]-3-[5-(3-hydroxy-3-methylbutyl)-2-methoxybenzamido] bicyclo[2.2.1]heptane-2-carboxamide] yielded an EC50 of 9 nM.

For `COc1ccc(S(=O)(=O)N2CCN[C@@H](CO)C2)cc1C(=O)NC1C2CCC(/C2=C/C(F)(F)F)[C@@H]1C(=O)Nc1ccc(F)c(C(F)(F)F)c1` (stereo partly drawn) [Example 204, (2S,3R,7Z)-N-[4-fluoro-3-(trifluoromethyl)phe-nyl]-3-(5-{[(3R)-3-(hydroxymethyl)piper-azin-1-yl]sulfonyl}-2-methoxybenzamido)-7-(2,2,2-trifluoroethylidene)bi-cyclo[2.2.1]heptane-2-carboxamide], a half-maximal response (EC50) required 341 nM.

In the case of `COc1ccc(C(=O)N2CCC(S(C)(=O)=O)C2)cc1C(=O)N[C@H]1[C@@H](C(=O)Nc2ccc(F)c(C(F)(F)F)c2)[C@H]2CC[C@@H]1/C2=C\C1CC1` (stereo partly drawn) [Example 257, (1R,2S,3R,4R,7Z)-7-(cyclopropylmethyl-idene)-N-[4-fluoro-3-(trifluoromethyl)phenyl]-3-[5-(3-methanesulfonyl-pyrrolidine-1-carbonyl)-2-methoxybenzamido] bicyclo[2.2.1]heptane-2-carboxamide], the EC50 was 90.8 nM. Compared with the last compound, the EC50 is about 3.8-fold lower.

The compound `COc1cc(F)c(O[C@H]2CC[C@H](C(=O)O)CC2)cc1C(=O)N[C@@H]1C2CCC(/C2=C/C2CC2)[C@@H]1C(=O)Nc1ccc(F)c(C(F)(F)F)c1` (stereo partly drawn) [Example 376, (1R,4r)-4-(5-(((1R,2R,3S,4R,Z)-7-(cyclopropyl-methylene)-3-((4-fluoro-3-(trifluoromethyl)phenyl)carbamoyl)bicyclo[2.2.1]heptan-2-yl)carbamoyl)-2-fluoro-4-methoxyphenoxy) cyclohexane-1-carboxylic acid] gave an EC50 of 120 nM. This EC50 and that of the compound before are within 1.5-fold of each other.

For `COc1ccc(/C=C/C(=O)N2CCC(C(F)(F)F)CC2)cc1C(=O)N[C@H]1[C@@H](C(=O)Nc2ccc(F)c(C(F)(F)F)c2)[C@H]2CC[C@@H]1/C2=C\C1CC1` [Example 315], the EC50 stood at 91.2 nM.
